We go through three compounds from patent publication US4496580A, “Oxothienobenzoxepins” (Hoechst-Roussel Pharmaceuticals Inc., priority 1981, dated 1985).

The structures appear in SMILES notation.

Assay type in all cases: in vivo
Data set [1] can be described thus: ulcerogenic activity test (GI). The settings on record: for TD50: in vivo. An excerpt:
(The ulcerogenic ativity test is hereafter referred to as GI).

Data set [2] concerns carrageenan-induced rat paw edema. Kind of data set: carrageenan-induced rat paw edema antiinflammatory assay (CPE). Particulars: for ED50: CPE, rat, antiinflammatory. An excerpt: (The carrageenan-induced rat paw edema test is hereinafter referred to as CPE).
Data set [3] concerns 2-phenyl-1,4-benzoquinone-induced writhing. Kind of data set: 2-phenyl-1,4-benzoquinone-induced writhing test in mice (PQW). The settings on record: for ED50: Mus musculus, PQW, mice, analgesic. An excerpt:
(The phenylquinone-induced writhing test is hereinafter referred to as PQW).
In general terms: In writhing tests, fewer writhes than in controls are read as antinociception.

Regarding `O=C(O)Cc1ccc2c(c1)C(=O)c1sccc1CO2` [Compound 1, reference compound], the TD50 in data set [1] is 33.7 mg/kg. The results for the ED50 in data set [2] and in data set [3] were 3.4 mg/kg and 4.5 mg/kg, respectively.

For the compound `CC(C)OC(=O)Cc1ccc2c(c1)C(=O)c1sccc1CO2` [Compound 2, reference compound], in data set [1], the TD50 amounted to 21.6 mg/kg. For the same compound, the 50% effective dose (ED50) (usually the dose at which the effect has come halfway, by size or by number of responders) was 1.6 mg/kg in data set [2] and 13.7 mg/kg in data set [3].

Consider `O=C1c2cc(CCCCO)ccc2OCc2ccsc21` [Compound 3, 4-(4,10-Dihydro-10-oxothieno[3,2-c][1]benzoxepin-8-yl)butanol], for which the TD50 in data set [1] is greater than 400 mg/kg. For the same compound, the “incidence of ulcers / ulcerogenic activity” value in data set [1] (result in words, test animals, very high dosage levels) is given as “very low incidence of ulcers”. The results for the ED50 in data set [2] and in data set [3] were 8.6 mg/kg and 7.4 mg/kg, respectively. Further, in data set [2] (result in words), the “activity in the CPE test” value is reported as “exhibit activity”. The “activity in the PQW test” value in data set [3] (result in words) is “exhibit activity”.
